# Results from PubChem BioAssay (NCI).
#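 Test compounds were applied to cells in 96-well plates for 48 hours at 5 doses. TGI: total growth inhibition.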
# Columns and labels:
# Experiment in all cases: NCI-60 cell line screen, 48 h
# [1] = tested on: NCI-H23 lung
# [2] = tested on: K-562 leukemia
# [3] = tested on: KM12 colon
# [4] = tested on: CCRF-CEM leukemia
# [5] = tested on: SF-295 CNS
# [6] = tested on: UO-31 renal
# [7] = tested on: OVCAR-4 ovarian
# [8] = tested on: HCC-2998 colon
# [9] = tested on: KM20L2 colon
# [10] = tested on: UACC-257 melanoma
# [11] = tested on: 786-0 renal
# [12] = tested on: HOP-92 NSCLC
# [13] = tested on: NCI-H522 lung
# [14] = tested on: UACC-62 melanoma
# [15] = tested on: SNB-78 CNS
# [16] = tested on: EKVX NSCLC
# [17] = tested on: HOP-18 NSCLC
# [18] = tested on: SK-MEL-5 melanoma
# [19] = tested on: A549 NSCLC
# [20] = tested on: OVCAR-3 ovarian
# [21] = tested on: COLO 205 colon
# [22] = tested on: DMS 114 small cell lung
# [23] = tested on: DLD-1 colon
# [24] = tested on: NCI-H226 lung
# [25] = tested on: HL-60(TB) leukemia
# [26] = tested on: SF-539 CNS
# [27] = tested on: TK-10 renal
# [28] = tested on: NCI-H460 lung
# [29] = tested on: MALME-3M melanoma
# [30] = tested on: M19-MEL melanoma
# [31] = tested on: HT29 colon
# [32] = tested on: OVCAR-8 ovarian
# [33] = tested on: HOP-62 NSCLC
# [34] = tested on: M14 melanoma
# [35] = tested on: SNB-19 CNS
# [36] = tested on: SW-620 colon
# [37] = tested on: RXF 393 renal
# [38] = tested on: XF 498 CNS
# [39] = tested on: IGROV1 ovarian
# [40] = tested on: HCT-116 colon
# [41] = tested on: HCT-15 colon
# [42] = tested on: MOLT-4 leukemia
# [43] = tested on: RXF-631 renal
# [44] = tested on: RPMI-8226 leukemia
# [45] = tested on: LOX IMVI melanoma
# [46] = tested on: SNB-75 CNS
# [47] = tested on: DMS 273 small cell lung
# [48] = tested on: OVCAR-5 ovarian
# [49] = tested on: SF-268 CNS
# [50] = tested on: ACHN renal
# [51] = tested on: SN12C renal
# [52] = tested on: LXFL 529 NSCLC
# [53] = tested on: CAKI-1 renal
# [54] = tested on: A498 renal
# [55] = tested on: SK-MEL-28 melanoma
# [56] = tested on: SK-MEL-2 melanoma
# [57] = tested on: SK-OV-3 ovarian
# [58] = tested on: U251 CNS
compound,measurement,setting,value
Cc1nc2c(nc1C)C(=O)C1=C(C2=O)C2C=CC1CC2,TGI,[1],19.6 µM
same,TGI,[2],6.15 µM
same,TGI,[3],33.3 µM
same,TGI,[4],5.9 µM
same,TGI,[5],25 µM
same,TGI,[6],26.1 µM
same,TGI,[7],3.5 µM
same,TGI,[8],> 62.1 µM
same,TGI,[9],52.8 µM
same,TGI,[10],14.5 µM
same,TGI,[11],24.8 µM
same,TGI,[12],4.48 µM
same,TGI,[13],5.91 µM
same,TGI,[14],12.3 µM
same,TGI,[15],10.6 µM
same,TGI,[16],18.9 µM
same,TGI,[17],30.2 µM
same,TGI,[18],4.82 µM
same,TGI,[19],41.5 µM
same,TGI,[20],17.3 µM
same,TGI,[21],29.8 µM
same,TGI,[22],3.71 µM
same,TGI,[23],21.6 µM
same,TGI,[24],30.8 µM
same,TGI,[25],4.26 µM
same,TGI,[26],26.9 µM
same,TGI,[27],> 55.9 µM
same,TGI,[28],39.8 µM
same,TGI,[29],24.4 µM
same,TGI,[30],3.46 µM
same,TGI,[31],41.7 µM
same,TGI,[32],10.8 µM
same,TGI,[33],53.9 µM
same,TGI,[34],27.3 µM
same,TGI,[35],> 61.2 µM
same,TGI,[36],8.09 µM
same,TGI,[37],18.5 µM
same,TGI,[38],14.5 µM
same,TGI,[39],9.93 µM
same,TGI,[40],3.12 µM
same,TGI,[41],38.1 µM
same,TGI,[42],5.38 µM
same,TGI,[43],13.9 µM
same,TGI,[44],7.35 µM
same,TGI,[45],6.14 µM
same,TGI,[46],61.6 µM
same,TGI,[47],29.8 µM
same,TGI,[48],36.9 µM
same,TGI,[49],12.3 µM
same,TGI,[50],24.9 µM
same,TGI,[51],32.4 µM
same,TGI,[52],3.19 µM
same,TGI,[53],37.6 µM
same,TGI,[54],98.7 µM
same,TGI,[55],35.6 µM
same,TGI,[56],29 µM
same,TGI,[57],> 96.3 µM
same,TGI,[58],10.1 µM
NC(N)=NS(=O)(=O)c1ccc(NC(=O)c2cccc3c(Nc4ccc(S(=O)(=O)N=C(N)N)cc4)c4ccccc4nc23)cc1,TGI,[1],> 100 µM
same,TGI,[2],> 100 µM
same,TGI,[3],> 100 µM
same,TGI,[4],> 100 µM
same,TGI,[5],> 100 µM
same,TGI,[6],> 100 µM
same,TGI,[7],> 100 µM
same,TGI,[9],> 100 µM
same,TGI,[10],> 100 µM
same,TGI,[11],> 100 µM
same,TGI,[12],> 100 µM
same,TGI,[13],> 100 µM
same,TGI,[14],> 100 µM
same,TGI,[15],> 100 µM
same,TGI,[16],> 100 µM
same,TGI,[17],> 100 µM
same,TGI,[18],> 100 µM
same,TGI,[19],> 100 µM
same,TGI,[20],> 100 µM
same,TGI,[21],> 100 µM
same,TGI,[22],> 100 µM
same,TGI,[23],> 100 µM
same,TGI,[25],> 100 µM
same,TGI,[26],> 100 µM
same,TGI,[27],> 100 µM
same,TGI,[28],> 100 µM
same,TGI,[29],> 100 µM
same,TGI,[30],> 100 µM
same,TGI,[31],> 100 µM
same,TGI,[32],> 100 µM
same,TGI,[33],> 100 µM
same,TGI,[34],> 100 µM
same,TGI,[35],> 100 µM
same,TGI,[36],> 100 µM
same,TGI,[37],> 100 µM
same,TGI,[38],> 100 µM
same,TGI,[39],> 100 µM
same,TGI,[40],> 100 µM
same,TGI,[41],> 100 µM
same,TGI,[42],> 100 µM
same,TGI,[43],> 100 µM
same,TGI,[44],> 100 µM
same,TGI,[45],> 100 µM
same,TGI,[46],81.5 µM
same,TGI,[47],> 100 µM
same,TGI,[48],> 100 µM
same,TGI,[49],> 100 µM
same,TGI,[50],> 100 µM
same,TGI,[51],> 100 µM
same,TGI,[52],> 100 µM
same,TGI,[54],> 100 µM
same,TGI,[55],> 100 µM
same,TGI,[56],> 100 µM
same,TGI,[57],> 100 µM
same,TGI,[58],> 100 µM
